Like-named read-outs stand apart in the source and are kept apart here.
Assays:
[1] = tested on: Caco-2:HT29-MTX-E12 co-culture monolayers; conditions: human, 100 min
[2] = Supersaturation-precipitation; type: physicochemical; conditions: for Duration intended degree of drug supersaturation was maintained / Time to drug precipitation: base buffer, preliminary experiments, SSR 5 (CVDL) / 6 (PXM)
[3] = Equilibrium solubility determination in test media; type: physicochemical; conditions: 37 °C; for Equilibrium solubility, effect of addition of mucin: 0.1, 0.2, 0.4 %w/v mucin in 10 mM phosphate buffer pH 6.50 relative to buffer; for Equilibrium solubility, effect of addition of 8 %w/v PIM: 8 %w/v native pig intestinal mucus in 10 mM phosphate buffer pH 6.50 relative to buffer
Caco-2 monolayers = conditions: human, 100 min
[4] = 1 SSR (multiple of equilibrium solubility)
[5] = 5 SSR (multiple of equilibrium solubility)

In the case of `COc1ccccc1OCCNCC(O)COc1cccc2[nH]c3ccccc3c12` (stereo not drawn) [CVDL, Carvedilol], the “TEER relative to starting value” [1, 4] is reported as over 80 % starting value, the “TEER relative to starting value” [1, 5] is reported as ~ 60 % starting value and the “Time drug remained supersaturated” value ([2]; SSR = 5, 8 %w/v native PIM, ISE) is reported as 24 h. The “Time to precipitation (Tss), effect of increasing mucin concentration” value ([2]; SSR = 5, ISE, up to 0.2 %w/v mucin) was “significantly increased”, the “Time within which supersaturated drug precipitated (ISE)” value ([2]; SSR = 5, absence of mucus, ISE, average ± SEM, n=3) was 19 ± 4 min and the “Time after which drug precipitated (HPLC)” value ([2]; SSR = 5, buffer solution, HPLC analysis) was over 10 min. The “SSR maintained throughout the monitoring period” value ([2]; SSR = 5 induced, 0.4 %w/v mucin, ISE, 24 h) was over 3, the “SSR maintained throughout the monitoring period” value ([2]; SSR = 5 induced, 8 %w/v PIM, ISE, 24 h) was over 3 and the “Duration intended degree of drug supersaturation was maintained” value [2] was “at least 5 min”. For the same compound, the “Time to drug precipitation” value [2] was at most 1 h, the “Equilibrium solubility, effect of addition of mucin” value [3] was “did not change” and the “Equilibrium solubility, effect of addition of 8 %w/v PIM” value [3] was “significantly increased”. For the same compound, the “TEER relative to starting value” (Caco-2 monolayers; [4]) was over 80 % starting value and the “TEER relative to starting value” (Caco-2 monolayers; [5]) was ~ 60 % starting value.

For `CN1C(C(=O)Nc2ccccn2)=C(O)c2ccccc2S1(=O)=O` [PXM, piroxicam], the “Time after which drug started to precipitate” value ([2]; SSR = 6, buffer alone, HPLC) was over 5 h, the “SSR reached at 24 h” value ([2]; SSR = 6 induced, buffer alone, HPLC) was ~ 4 and the “SSR maintained throughout the monitoring period” value ([2]; SSR = 6 induced, presence of mucin (regardless of concentration) and PIM, HPLC) was 6. The “Duration intended degree of drug supersaturation was maintained” value [2] was “at least 5 min”, the “Time to drug precipitation” value [2] was at most 5 h and the “Equilibrium solubility, effect of addition of mucin” value [3] was “appeared to increase”. The “Equilibrium solubility, effect of addition of 8 %w/v PIM” value [3] was “significantly increased”.
